Consider two molecules from paper PMC8399913, “Development of Arteannuin B Sustained-Release Microspheres for Anti-Tumor Therapy by Integrated Experimental and Molecular Modeling Approaches” (Pharmaceutics, 2021).

Like-named read-outs stand apart in the source and are kept apart here.

In data set [1] the test system is mouse lung cancer metastasis models. The data set is described as follows: Preliminary experiments: mouse lung cancer metastasis models. The class given is in vivo.
On the set-up of data set [2]: method as in doi:10.1002/cjoc.19830010106. The conditions noted are these: cited from earlier work.
Data set [3] can be described thus: Tolerance of AB dissolved in Tween-80, ethanol and PEG-40. The class given is in vivo.
The subject of the next data set is A549 cells. The data set is described as follows: Anti-tumor cell proliferation activity (MTT method). It counts as cell-based, human. The conditions noted are these: mean ± SD, n = 3. How it is done:
The human non-small cell lung cancer (NSCLC) cell line (A549) was from American Type Culture Collection (ATCC, Manassas, VA, USA). RPMI-1640 medium and fetal calf serum (FBS) were from Gibco Life Technologies (Grand Island, NY, USA). A549 cells were inoculated in RPMI 1640 medium (containing 10% FBS) in a 37 °C, 5% CO2 cell incubator for culture and storage.
A549 cells were seeded into a 96-well plate at a concentration of 5 × 10^3 per well. AB and ABMs were prepared with DMSO and a specific solvent to make the final concentration per well was 6.25, 12.5, 25, 50, and 100 μM. Here, the dosage of AB in ABMs is calculated according to the actual cumulative release amount in the solution, which is calculated as 55% in 96 h. In the experiment, the control group consisted of cells treated with DMSO and a specific solvent of ABMs and cells without any treatment. The MTT method was used to measure the optical density (OD) values of the cells at 24, 48, 72, and 96 h after treatment. The inhibition rate (IR) of each group of samples on tumor cell growth was calculated according to the following equation:(6) IR(%)=OD(solvent)−OD(exp)/OD(solvent)×100% where OD(solvent) is the mean OD of the solvent group and OD(exp) is the mean OD of the experimental group.
A dose–response curve could be obtained with different concentrations of the samples on the tumor cell growth inhibition, from which the half-inhibition concentration (IC50) of the sample can be obtained. There are five replicate holes in each group, and the average value of the five holes was taken. Three parallel experiments were carried out for each sample, and the results were expressed as mean ± standard deviation (mean ± SD). According to the inhibition rate of each group, the IC50 of AB and ABMs at each time point was calculated by the statistical software IBM SPSS Statistics 20.

The conditions of data set [4]: cited from earlier work.
The test system of data set [5] is HT-29, HepG2, SGC-7901, A549, K562, B16-F10, and Du145 cells. The data set is described as follows: Preliminary experiments: tumor cell proliferation. The class given is cell-based.
The subject of data set [6] is normal human embryonic liver cells L-02. The data set is described as follows: Preliminary experiments: toxicity to normal cells. The class given is cell-based.
Data set [7] can be described thus: PK study in SD rats (AB plasma concentration by LC-MS). The class given is in vivo, Sprague-Dawley rats. As to conditions: 3.5 mg/kg; for Cmax / half-life: Sprague-Dawley, rat, plasma. How it is done: There were 9 SD rats equally separated into three groups. The first two groups were injected with AB at a dose of 3.5 mg/kg, through different injection routes, either subcutaneous or intramuscular injections. Collect whole blood from the jugular vein of each rat one day before administration and 0, 0.08, 0.16, 0.25, 0.5, 1, 2, 4, 6, and 24 h after administration. The third group was a subcutaneous injection of ABMs with a dose of 50 mg/kg. The whole blood was collected from the jugular vein of each rat one day before the administration and 0.08, 0.25, 0.5, 1, 2, 4, 6, 24, 72, 168, and 240 h after administration. A 1.0 mL disposable syringe was used, and the blood volume was 0.2 mL each time. The whole blood sample was placed in a centrifuge tube (1.5 mL, Xinkang Medical, Taizhou, Jiang Su, China) containing 2000 KIU aprotinin and EDTA-K2 anticoagulant. Turn the centrifuge tube upside down to mix the anticoagulant with the blood thoroughly. Before centrifugation, it should be stored in a pre-cooled CoolRack module (Rack M30, Corning, NY, USA) on wet ice and centrifuged within 15 min after collection. Centrifugation was performed at 4000 rpm, 15 min, 4 °C. After centrifugation, the plasma was separated, the supernatant transferred to the label sample tube (the transfer process needs to be operated on ice), and the sample was checked and stored in the −80 °C refrigerator until analysis.
LC-MS spectrometry (TQ XS, Waters, Milford, MA, USA) was used to detect the plasma concentration of AB. The electrospray ion source (ESI+) in positive ion mode has an ion source temperature of 150 °C, a solvent removal temperature of 500 °C, and a capillary voltage of 0.5 kV. Multiple reaction monitoring (MRM) mass spectrometry parameters are: AB, m/z 249.1→189.1, cone voltage 20 V, collision voltage 10 eV; aripiprazole-D8 (internal reference), m/z 456.3→293.2, the cone voltage is 20 V, and the collision voltage is 25 eV.
SD male rat plasma 50 μL and 200 μL of precipitant (0.1% formic acid in acetonitrile, containing 0.2 ng/mL aripiprazole-D8 as an internal reference) was added into a 96-well plate, and the plate was shaken at 750 rpm (Compact Digital MicroPlate Shaker, Thermo fisher, Waltham, MA, USA) for 10 min. Next, the sample was centrifuged (Legend Micro 21R, Thermo fisher, Waltham, MA, USA) at 4200 rpm for 25 min. After centrifugation, 60 μL of the supernatant was added to a 96-well plate, and then 140 μL of pure water was added, and the plate was shaken at 750 rpm for 5 min before the sample was injected for detection.
HPLC was equipped with a C18 column (Waters, BEH, 130 Å, 2.1 × 50 mm, 1.7 μm), and the mobile phase consisted of elution A (0.1% w/v citric acid in 5%w acetonitrile aqueous solution) and elution B (0.1% w/v citric acid in 95%w acetonitrile aqueous solution) at the ratio of 70:30 v/v. The flow rate was set at 1 mL/min, and the injection volume was 10 μL. The column temperature was set at 60 °C.

In a further data set the test system is A549 xenograft tumor. As to the kind of experiment: In vivo anti-tumor activity, A549 xenograft tumor model. As to conditions: 3 mg/kg once every 3 d; after four weeks. More on the design: species or system BALB/c nude mice. As for the experimental part: A549 xenograft tumor model was obtained by subcutaneously injecting 1 × 10^6 cells (A549) into BALB/c nude mice. When the average size of the tumor reached about 100 mm^3, the tumor-bearing mice were randomly divided into 6 groups (6 mice in each group). The average size of tumors was calculated according to the equation 0.5 × a × b × b (a is the length, b is the width). The 700, 350, and 175 mg/kg dose groups of the ABMs were suspended in a specific solvent and then administered subcutaneously once a week, 4 times in total. […] The vehicle (microsphere without AB) group was given once a week for a total of 4 times. The model (saline) group was given once a day as a control. Meanwhile, a group of mice without any treatment (WT group) was selected as the standard group for comparison. The changes in food intake, water consumption, and mental state of the nude mice were observed and recorded every day after administration. The body weight and tumor size of the tumor-bearing mice were measured twice a week, and the relative tumor volume (RTV) of the nude mice was calculated by Equation (7). RTV = Vt/V0(7) where Vt is the tumor volume at each measurement and V0 is the tumor volume before administration. The relative tumor growth rate T/C (%) was calculated according to the following equation to evaluate the anti-tumor activity of each group. (8) T/C(%)=TRTV/CRTV×100%

For `C=C1C(=O)O[C@@]23[C@H]1CC[C@@H](C)[C@@H]2CC[C@@]1(C)O[C@@H]31` [AB, Arteannuin B], the therapeutic effect result in [1] is listed as “good therapeutic effect”. Besides, the antimalarial activity entry in data set [2] was “no antimalarial activity”. The tolerance after administration entry in data set [3] is “significant intolerance symptoms”. Also, the IC50 with A549 cells (96 h (day four)) is 16.2 ± 4.78 µM; in the data set with A549 cells (Homo sapiens, A549, 24 h, 24 h), 211 ± 63.2 µM; with A549 cells (Homo sapiens, A549, 48 h, 48 h), 53.1 ± 22.5 µM; in the data set on A549 cells (Homo sapiens, A549, 72 h, 72 h), 27.5 ± 6.71 µM; in the data set with A549 cells (Homo sapiens, A549, 96 h, 96 h (day four)), 16 µM. Further, the elimination half-life result in data set [4] was “about 1 h”. Besides, the bioavailability in [4] (in animals) was 19–35%. Also, in data set [5], the “proliferation of tumor cells” value was “inhibit the proliferation”. Moreover, the “toxicity to normal cells” value in data set [6] was “no obvious toxicity”. Moreover, the Cmax in [7] (male SD rats, IM, mean ± SEM) amounted to 74.5 ± 34.2 ng/mL; in data set [7] (male SD rats, SC, mean ± SEM) it was 236 ± 100 ng/mL. The half-life was 2.3 h in data set [7] (male SD rats, IM, mean ± SEM, read-out: t1/2 (converted)); 1.15 h in data set [7] (male SD rats, SC, mean ± SEM, read-out: t1/2 (converted)); approximately 1 h in data set [7] (male, rats, read-out: elimination half-life (converted)). Also, the AUClast in [7] (male SD rats, IM, mean ± SEM) worked out at 0.618 ± 0.131 ng·days/mL; in data set [7] (male SD rats, SC, mean ± SEM), 2.538 ± 0.842 ng·days/mL. For the same molecule, the “AUClast from subcutaneous injection relative to intramuscular injection” value in data set [7] (rats) is “about four times that of intramuscular injection”.
As to `N.N.[Cl][Pt][Cl]` [DDP, Cis-platinum diamine-dichloride], the “tumor size (weight of dissected tumor)” value in the data set with A549 xenograft tumor was 0.38 ± 0.04 g.

Usually IC50 stands for the concentration that gives 50% inhibition. A lower IC50 goes with higher potency. One may read the Cmax as the peak of the concentration-time curve.
